The values that follow are results of earlier work, collected in US20250360113A1, “ADMINISTRATION OF DHB TO INCREASE BENEFIT OF LOSING WEIGHT OF INTERMITTENT FASTING” (NANJING NUTRABUILDING BIO-TECH CO., LTD., priority 2023, published 2025).

One series concerns brown adipocyte. Conditions: by increasing transcription of PRDM16 via AMPK activation and PGC-1α recruitment; cited from earlier work.
For series [1] the following is noted: obese db/db mice; cited from earlier work.

Take `COc1ccc2cc3[n+](cc2c1OC)CCc1cc2c(cc1-3)OCO2` [BBR, berberine]: in the series on brown adipocyte, the “brown adipocyte differentiation and brown adipose tissues (BAT) thermogenesis” value is “promote”. In series [1], the “energy expenditure and adaptive thermogenesis” value is “increase”; the “thermogenic program in BAT” value is recorded as “promote”; the weight gain entry is given as “reduce”.
